Data reported in patent publication US5208246A, “Tetralones with pharmacological activity” (J. Uriach & Cia., priority 1991, dated 1993).

Legend:
hypertense rats = assay: Test 2: Lowering of the arterial pressure in concious hypertense rats; format: in vivo, rat; conditions: 1 mg/Kg p.o.; spontaneously hypertense rats, conscious; 3 animals; arterial pressure every 60 minutes during 4 hours
Protocol: Test 2: Lowering of the arterial pressure in concious hypertense rats.
Spontaneously hypertense rats (between 200 and 250 g of body weight) of more than 8 weeks of age have been used. Diastolic and systolic arterial pressure of the rat was measured at the caudal artery using a special sphygnomanometer (Letica 5007 and 5007/4) attached to the animal's tail. To ensure rapid and reliable data, animals were placed in a heating plate at 37° C., with the aim to produce a vasodilation that ensured a better fixation of the rat tail to the transfer chamber. During the experiment, rats are conscious and fixed to a clamp. The tested products were administered orally. Arterial pressure was measured every 60 minutes during 4 hours and 10 minutes before the administration of the tested compound. The decrease of the arterial pressure was calculated for each compound at a dose of 1 mg/Kg, using 3 animals.

[1] = system: portal vein isolated from rat; assay: Test 1: Inhibition of the contraction induced by noradrenaline in portal vein isolated from rat; conditions: 0.5 h
Protocol: Test 1: Inhibition of the contraction induced by noradrenaline in portal vein isolated from rat.
Portal vein was extracted from adult male rats (between 200 and 250 g of body weight), which had been stunned by a blow in the head. Portal vein was installed into an isolated organ bath (Letica) containing a physiological saline solution (Hamilton et al., Br. J. Pharmacol., 1986, 103-111) at 37° C. and a gas bubbler (5% CO2 and 95% O2). Contractions were induced by noradrenaline (3 μM) and were reverted after thoroughly washing with physiological saline solution. Portal vein contraction was measured with an isometric force transducer and with an initial tension of 1 g. After two contractions with noradrenaline, performed in order to measure the tissue's basal response, the tested compounds were incubated for 30 minutes and a new contraction was induced.

[2] = system: trachea isolated from guinea pig; assay: Test 3: Direct relaxation of the trachea isolated from guinea pig; conditions: Cavia porcellus; 50% of the maximum relaxation; maximum = relaxation by isoproterenol at 1×10^-6 M; cumulative addition; basal tension 0.5 g; 37° C.
Protocol: Test 3-Direct relaxation of the trachea isolated from guinea pig.
This test was performed according to the experimental model described by Emmerson, J. and Mackay, D. (J. Pharm. Pharmacol., 1979, 31, 798). Tracheas were extracted from male guinea pigs of 400 g of body weight, which had been stunned by a blow in the head. Then, tracheas were cut in zigzag and placed into an isolated organ bath (Letica) containing Krebs-Henseleit solution at 37° C. and were bubbled with carbogen (95% O2 and 5% CO2). The relaxation of the trachea was measured using an isometric force transducer. The basal tension was 0.5 g.

| Structure (SMILES) | Pressure Decrease (hypertense rats) [mm Hg] | IC50 [1] [µM] | EC50 [2] [µM] |
| --- | --- | --- | --- |
| CC1(C)C=C(n2ccccc2=O)c2cc(C#C[Si](C)(C)C)ccc2C1=O [Compound 49, 1,2-dihydro-4-(1,2-dihydro-2-oxo-1-pyridyl)-2,2-dimethyl-6-trimethylsilylethynylnaphthalen-1-one] | 91.5 | 0.46 | 4.8 |
| CC1(C)C=C(n2ccccc2=O)c2cc(C#N)ccc2C1=O [Compound 26, 1,2-dihydro-4-(1,2-dihydro-2-oxo-1-pyridyl)-2,2-dimethyl-1-oxonaphthalen-6-carbonitrile] | 96.5 | 0.6 | 0.1 |
| CC1(C)C=C(n2ccccc2=O)c2cc(Cl)c(Cl)cc2C1=O [Compound 58] | 58 | 0.7 | 0.05 |
| CC1(C)C(=O)c2ccc(C(F)(F)F)cc2[C@@H](n2ccccc2=O)[C@@H]1O (relative stereo) [Compound 41, Trans 4-(1,2-dihydro-2-oxo-1-pyridyl)-2,2-dimethyl-3-hydroxy-1,2,3,4-tetrahydro-6-trifluoromethylnaphthalen-1-one] | 52.6 |  | 1 |
| CC1(C)C(=O)c2ccc(C#N)cc2[C@@H](n2ccccc2=O)[C@@H]1O (relative stereo) [Compound 23, Trans 4(1,2-dihydro-2-oxo-1-pyridyl)-2,2-dimethyl-3-hydroxy-1-oxo-1,2,3,4-tetrahydronaphthalen-6-carbonitrile] | 84 | 14 | 99 |
| CC1(C)C=C(n2ccccc2=O)c2ccc(C#N)cc2C1=O [Compound 55, 1,2-dihydro-4-(1,2dihydro-2-oxo-1-pyridyl)-2,2-dimethyl-1-oxonaphthalen-7carbonitrile] | 41 | > 10 |  |
| CC1(C)C=C(n2ccccc2=O)c2cc(C(F)(F)F)ccc2C1=O [Compound 42, 1,2-dihydro-4-(1,2-dihydro-2-oxo-1-pyridyl)-2,2-dimethyl-6-trifluoromethylnaphthalen-1-one] | 103 | 0.35 | 31 |
| CC1(C)C=C(n2ccccc2=O)c2cc(Cl)ccc2C1=O [Compound 11, 6-chloro-1,2-dihydro-4-(1,2-dihydro-2-oxo-1-pyridyl)-2,2-dimethylnaphthalen-1-one] | 53 | 1.4 | 1.1 |
| CC1(C)C(=O)c2ccc(Br)cc2[C@@H](N2Cc3ccccc3C2=O)[C@@H]1O (relative stereo) [Compound 22, Trans 6-bromo-4-(2,3-dihydro-1-oxo-1H-isoindol-2-yl)-2,2-dimethyl-3-hydroxy-1,2,3,4-tetrahydronaphthalen-1-one] | 24 | 3.1 | > 50 |
| CC(=O)N(C)c1ccc2c(c1)C(n1ccccc1=O)=CC(C)(C)C2=O [Compound 38, 1,2-dihydro-4-(1,2-dihydro-2-oxo-1-pyridyl)-2,2-dimethyl-6N-methylacetamidonaphthalen-1-one] | 49.3 | 4.3 | 1.5 |
| CC(=O)N(C)c1ccc2c(c1)C(N1CCCC1=O)=CC(C)(C)C2=O [Compound 40, 1,2-dihydro-2,2-dimethyl-6-N-methylacetamido-4-(2-oxo-1-pyrrolidinyl)naphthalen-1-one] | 23 | 17 | 2.5 |
| CC1(C)C(=O)c2cc(Cl)c(Cl)cc2[C@@H](n2ccccc2=O)[C@@H]1O (relative stereo) [Compound 57, Trans 6,7-dichloro-4-(1,2-dihydro-2-oxo-1-pyridyl)-2,2-dimethyl-3-hydroxy-1,2,3,4-tetrahydronaphthalen-1-one] | 52 | 1.5 | 0.5 |
| CC1(C)C(=O)c2ccc(Br)cc2[C@@H](N2CCCC2=O)[C@@H]1O (relative stereo) [Compound 18, Trans 6-bromo-2,2-dimethyl-3-hydroxy-4-(2-oxo-1-pyrrolidinyl)-1,2,3,4-tetrahydronaphthalen-1-one] | 39 | > 10 | 78 |
| CC1(C)C(=O)c2ccc(S(=O)(=O)c3ccccc3)cc2[C@@H](n2ccccc2=O)[C@@H]1O (relative stereo) [Compound 60, Trans 4-(1,2-dihydro-2-oxo-1-pyridyl)-2,2-dimethyl-3-hydroxy-6-phenylsulphonyl-1,2,3,4-tetrahydronaphthalen-1-one] | 32.5 | 0.3 |  |
| CC(=O)N(C)c1ccc2c(c1)[C@@H](n1ccccc1=O)[C@H](O)C(C)(C)C2=O (relative stereo) [Compound 36, Trans 4-(1,2-dihydro-2-oxo-1-pyridyl)-2,2-dimethyl-3-hydroxy-6-N-methylacetamide-1,2,3,4-tetrahydronaphthalen-1-one] | 94 | 33 | > 100 |
| CC1(C)C=C(n2ccccc2=O)c2ccc(Br)cc2C1=O [Compound 52, 7-bromo-1,2-dihydro-4-(1,2-dihydro-2-oxo-1-pyridyl)-2,2-dimethylnaphthalen-1-one] | 37 | 2.7 |  |
| CC1(C)C(=O)c2ccc(Br)cc2[C@@H](n2ccccc2=O)[C@@H]1O (relative stereo) [Compound 14, Trans 6-bromo-4-(1,2-dihydro-2-oxo-1-pyridyl)-2,2-dimethyl-3-hydroxy-1,2,3,4-tetrahydronaphthalen-1-one] | 23 | 28 | > 10 |
| CC1(C)C=C(N2CCCC2=O)c2cc(C#N)ccc2C1=O [Compound 30] | 103 | 0.8 | 0.9 |
| COc1ccc2c(c1)C(n1ccccc1=O)=CC(C)(C)C2=O [Compound 6, 1,2-dihydro-4-(1,2-dihydro-2-oxo-1-pyridyl)-2,2-dimethyl-6-methoxynaphthalen-1-one] | 42.5 | 21 |  |
| CC1(C)C=C(N2CCCC2=O)c2cc(Br)ccc2C1=O [Compound 21, 6-bromo-1,2-dihydro-2,2-dimethyl-4-(2-oxo-1-pyrrolidinyl)naphthalen-1-one] | 60.5 | 10 | 19 |
| CC(=O)O[C@H]1[C@H](n2ccccc2=O)c2cc(C#N)ccc2C(=O)C1(C)C (relative stereo) [Compound 24, Trans 3-acetoxy-4-(1,2-dihydro-2-oxo-1-pyridyl)-2,2-dimethyl-1-oxo-1,2,3,4-tetrahydronaphthalen-6-carbonitrile] | 64.7 | 23 | 2.2 |
| C#Cc1ccc2c(c1)C(n1ccccc1=O)=CC(C)(C)C2=O [Compound 50, 1,2dihydro-4-(1,2-dihydro-2-oxo-1-pyridyl)-2,2-dimethyl-6-ethynylnaphthalen-1-one] | 112 | 0.98 | 0.25 |
| CC1(C)C=C(n2ccccc2=O)c2cc(Br)ccc2C1=O [Compound 16, 6-bromo-1,2-dihydro-4-(1,2-dihydro-2-oxo-1-pyridyl)-2,2-dimethylnaphthalen-1-one] |  | 0.5 | 0.2 |
| CC1(C)C=C(N2CCCC2=O)c2cc(Cl)ccc2C1=O [Compound 13, 6-chloro-1,2-dihydro-2,2-dimethyl-4-(2-oxo-1-pyrrolidinyl)naphthalen-1-one] | 32 | > 10 | > 10 |
